Measured values published in PMC3869807 (PLoS ONE, 2013).
Several values for one entry are separate records, joined by “and”; a condition that tells them apart may be missing. Equal entries are not always repeated.

Key:
[1] = molecular target: T1, µ-opioid receptor (Homo sapiens, UniProt P35372); experiment: cell-based; assay type: cell-based; parameters: host or cells: U2OS
[2] = molecular target: T1, µ-opioid receptor; experiment: biochemical; parameters: host or cells: U2OS (membrane preparation)
[3] = molecular target: T1, µ-opioid receptor; experiment: biochemical; assay type: binding; parameters: host or cells: U2OS (membrane preparation)
[4] = molecular target: T1, µ-opioid receptor; experiment: biochemical; assay type: binding; parameters: host or cells: U2OS (membrane preparation); remark: listed apart in the source

T1 sequence (P35372 whole entry): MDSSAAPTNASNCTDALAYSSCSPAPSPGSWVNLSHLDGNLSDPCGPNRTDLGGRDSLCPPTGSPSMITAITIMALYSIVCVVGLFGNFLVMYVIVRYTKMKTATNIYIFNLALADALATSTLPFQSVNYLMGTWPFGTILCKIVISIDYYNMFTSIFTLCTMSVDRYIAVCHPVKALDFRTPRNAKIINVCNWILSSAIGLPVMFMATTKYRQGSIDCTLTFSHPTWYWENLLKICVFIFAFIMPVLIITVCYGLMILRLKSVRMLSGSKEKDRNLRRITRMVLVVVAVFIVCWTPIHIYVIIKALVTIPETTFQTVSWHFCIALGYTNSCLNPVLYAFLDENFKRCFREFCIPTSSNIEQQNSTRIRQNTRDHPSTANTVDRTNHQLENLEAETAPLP

| Structure (SMILES) | β-arrestin recruitment that was PTX sensitive [1] | Emax [1] [%] | Emax ([1]; U2OS) [%] | Emax [2] | Ki ([3]; GRK2 moi 5 KL) [nM] | Ki ([3]; Untransduced KL) [nM] | EC50 ([1]; β-fun 1 nM EC50) [nM] | EC50 ([1]; β-fun 10 nM EC50) [nM] | Ki ([4]; GRK2 moi 5 KH) [nM] | Ki ([4]; Untransduced KH) [nM] | EC50 ([2]; EC50) |
| --- | --- | --- | --- | --- | --- | --- | --- | --- | --- | --- | --- |
| C[C@@H](NC(=O)[C@@H](N)Cc1ccc(O)cc1)C(=O)NCC(=O)N(C)[C@@H](Cc1ccccc1)C(=O)NCCO [DAMGO, [D-Ala^2, MePhe^4, gly^5 –ol]-enkephalin] | 60–70% |  |  |  |  |  |  |  |  |  |  |
| NC(=O)[C@H](Cc1ccccc1)NC(=O)[C@H](Cc1ccccc1)NC(=O)[C@@H]1CCCN1C(=O)[C@@H](N)Cc1ccc(O)cc1 [Endomorphin 2, endomorphin 2] |  | 74±4 | 69 ± 3 | 104% and 101±2% |  |  |  |  |  |  |  |
| COc1ccc2c3c1O[C@H]1C(=O)CC[C@@]4(O)[C@@H](C2)N(C)CC[C@]314 [Oxycodone, oxycodone] | 60–70% |  |  | 95% and 104±2% |  |  |  |  |  |  |  |
| CC(=O)N[C@@H](Cc1ccccc1)C(=O)NCC(C)(C)NC(=O)[C@@H](N)Cc1ccc(O)cc1.Cl [Pfizer comp 1, 2-(L-Tyrosylamino)-1-[(N-acetyl-L-phenylalanyl)-amino]-2-methylpropane hydrochloride] | 60–70% | 99±8 | 106 ± 4 | 103% and 100±4% | 21.9 | 42.7 | 1.38 | 2.24 | 0.0513 | 0.0479 | 0.219 nM and 0.17 nM |
